Experimental data published in patent US20040005311A1, “Dietary supplement compositions” (priority 2003, published 2004).

Test system: Alzheimer's disease-related / dementia-related symptoms
Experiment: Dietary supplementation of dementia subjects (case accounts by caregiver and physician)
Type: in vivo, human
Conditions: Subject #3; diet also supplemented with yellow corn, pineapple and tomato sauce products
Description: Prior to addressing the patient's dementia problem, a complete diagnosis of the subject was performed by a qualified physician.
The diets of these four subjects were also supplemented, to varying degrees, with yellow corn, pineapple and tomato sauce products.

CC(C)=CCC/C(C)=C/C=C/C(C)=C/C=C/C(C)=C/C=C/C=C(C)/C=C/C=C(C)/C=C/C=C(\C)CCC=C(C)C [lycopene]
symptoms (memory loss, anxiety, eating less): still exhibiting reduced symptoms
